The source of these data is patent publication US7943660B2, “Inhibitors of the LFA-1/ICAM-1 interaction and uses thereof” (Dominion Pharmakine S.L., priority 2005, dated 2011).

The term melting point denotes the temperature of the solid-liquid transition.

Regarding `CC[C@H](C)C(OCc1ccccc1)[C@H]1[C@H]([N+](=O)[O-])[C@H](c2ccccc2)N[C@@H]1C(=O)NCCC(=O)O` (stereo partly drawn) [Compound 1, 3-[(2S,3R,4S,5S)-3-[(2S)-1-(Benzyloxy)-2-methylbutyl]-4-nitro-5-phenylpyrrolidine-2-carboxamido]propanoic acid], the melting point lay within 140 to 141 °C. Turning to `CC[C@H](C)C(OCc1ccccc1F)[C@H]1[C@H]([N+](=O)[O-])[C@H](c2ccccc2)N[C@@H]1C(=O)NCCC(=O)O` (stereo partly drawn) [Compound 3, 3-[(2S,3R,4S,5S)-3-[(2S)-1-(2-Fluorobenzyloxy)-2-methylbutyl]-4-nitro-5-phenylpyrrolidine-2-carboxamido]propanoic acid], the melting point fell in the range of 136 to 138 °C. In turn, `CC[C@H](C)C(OCc1ccccc1F)[C@H]1[C@H]([N+](=O)[O-])[C@H](c2ccsc2)N[C@@H]1C(=O)NCCC(=O)O` (stereo partly drawn) [Compound 4, 3-[(2S,3R,4S,5S)-3-[(2S)-1-(2-Fluorobenzyloxy)-2-methylbutyl]-4-nitro-5-(thiophen-3-yl)pyrrolidine-2-carboxamido]propanoic acid] showed a melting point of 113 to 114 °C. Consider `CC[C@H](C)C(OCc1ccccc1)[C@H]1[C@H]([N+](=O)[O-])[C@H](c2ccsc2)N[C@@H]1C(=O)NCCC(=O)O` (stereo partly drawn) [Compound 5, 3-[(2S,3R,4S,5S)-3-[(2S)-1-(Benzyloxy)-2-methylbutyl]-4-nitro-5-(thiophen-3-yl)pyrrolidine-2-carboxamido]propanoic acid], for which the melting point fell in the range of 145 to 146 °C. The compound `CC[C@H](C)C(OCc1ccccc1F)[C@H]1[C@H]([N+](=O)[O-])[C@@H](c2cccs2)N[C@@H]1C(=O)NCCC(=O)O` (stereo partly drawn) [Compound 6, 3-[(2S,3R,4S,5S)-3-[(2S)-1-(2-Fluorobenzyloxy)-2-methylbutyl]-4-nitro-5-(thiophen-2-yl)pyrrolidine-2-carboxamido]propanoic acid] returned a melting point of 94 to 96 °C. In the case of `CC[C@H](C)C(OCc1ccccc1)[C@H]1[C@H]([N+](=O)[O-])[C@@H](c2cccs2)N[C@@H]1C(=O)NCCC(=O)O` (stereo partly drawn) [Compound 7, 3-[(2S,3R,4S,5S)-3-[(2S)-1-(Benzyloxy)-2-methylbutyl]-4-nitro-5-(thiophen-2-yl)pyrrolidine-2-carboxamido]propanoic acid], the melting point is 79 to 80 °C.

Compound `CC(C)C(OCc1ccccc1)[C@H]1[C@H]([N+](=O)[O-])[C@H](c2cccnc2)N[C@@H]1C(=O)NCCC(=O)O` (stereo partly drawn) [Compound 8, 3-[(2S,3R,4S,5S)-3-(1-(Benzyloxy)-2-methylpropyl)-4-nitro-5-(pyridin-3-yl)pyrrolidine-2-carboxamido]propanoic acid] returned a melting point of 98 to 100 °C.

Consider `CC(C)C(OCc1ccccc1)[C@H]1[C@H]([N+](=O)[O-])[C@@H](c2ccco2)N[C@@H]1C(=O)NCCC(=O)O` (stereo partly drawn) [Compound 9, 3-[(2S,3R,4S,5S)-3-(1-(Benzyloxy)-2-methylpropyl)-5-(furan-2-yl)-4-nitropyrrolidine-2-carboxamido]propanoic acid], for which the melting point lay in the range of 70 to 72 °C. On to `CC[C@H](C)C(OCc1ccccc1)[C@@H]1[C@H]([N+](=O)[O-])[C@H](c2ccccc2)N(C(=O)CN)[C@]1(C)C(=O)NCCC(=O)O` (stereo partly drawn) [Compound 16, 3-[(2S,3R,4S,5S)-1-(2-Aminoacetyl)-3-[(2S)-1-(benzyloxy)-2-methylbutyl]-2-methyl-4-nitro-5-phenylpyrrolidine-2-carboxamido]propanoic acid], for which the melting point fell in the range of 115.9 to 116.2 °C. In turn, `CC[C@H](C)C(OCc1ccccc1)[C@@H]1[C@H]([N+](=O)[O-])[C@H](c2ccccc2)N(C(=O)CN)[C@]1(C)C(=O)NCCCC(=O)O` (stereo partly drawn) [Compound 17, 4-[(2S,3R,4S,5S)-1-(2-aminoacetyl)-3-[(2S)-1-(benzyloxy)-2-methylbutyl]-2-methyl-4-nitro-5-phenylpyrrolidine-2-carboxamido]butanoic acid] had a melting point of 132.7 to 133.6 °C.
